Key:
[1] = In vivo toxicity in C. elegans; design: species or system Caenorhabditis elegans; conditions: N2 Bristol, Caenorhabditis elegans, in vivo; 48 h, viability
Protocol: The Caenorhabditis elegans N2 Bristol strain (kindly provided by Dr. Christian Griñán-Ferré) was cultured, following established methods, in 90 mm Petri dishes containing solid Nematode Growth Media (NGM) seeded with E. coli OP50 (100 µL of an overnight culture spread on top of the NGM), maintained at 20 °C, and expanded to new plates once a week by transferring a 1-cm^3 NGM cube to a new plate. […] To do this, a plate with gravid adult worms was washed twice with 5 mL of M9 buffer (20 mM KH2PO4, 42 mM Na2HPO4, 86 mM NaCl, 1 mM MgSO4), and the nematodes were transferred to a 15-mL conical tube, where they were pelleted (400× g, 2 min). […] C. elegans viability and body length were analyzed after 48 h under a stereomicroscope (Leica M50 Routine Stereo Microscope; Leica Microsystems GmbH), taking representative images and videos with a 4× objective. C. elegans viability was determined in three experimentally independent replicas according to two variables: body shape (stiff, rod-like worms were counted as dead, as opposite to s-shaped live worms) and presence of movement in living C. elegans, with an n ≥ 100 worms/sample. Nematode body length was calculated with ImageJ software in worms anesthetized with 50 mM sodium azide. Statistically significant differences between groups were determined by the two-way analysis of variance (ANOVA) using GraphPad Prism 9.0.1.

[2] = test system: P. falciparum asexual blood stages; conditions: CC50 in HUVEC / IC50 two-hour incubation in P. falciparum
Protocol: The asexual blood stages of P. falciparum parasites of the 3D7 strain (Malaria Research and Reference Reagent Resource Center, Manassas, VA, USA) were cultured in group B human RBCs at 3% hematocrit, which was kept throughout the experiments, and incubated in RPMIc. Parasites were maintained at 37 °C under an atmosphere of 5% O2, 5% CO2, and 90% N2. […] The parasites were then cultured under standard conditions for 48 h, allowing for a complete replication cycle. After the incubation period, 3 µL of culture from each well was mixed with 197 µL of PBS containing 0.1 µM Syto 11 (Thermo Fisher Scientific, Inc.) to obtain a final concentration of 1 × 10^6 to 10 × 10^6 cells/mL. Parasitemia levels were measured using an LSRFortessa flow cytometer equipped with a standard configuration of four lasers and 20 parameters. Single-cell populations were identified on a forward-side scatter plot. […] The inhibition data were then transformed using sigmoidal fitting to determine IC50.
For stage arrest assays, P. falciparum cultures were tightly synchronized in schizont stages by repeated treatment with 70% Percoll (GE Healthcare, Chicago, IL, USA) [26, 27]. […] Pictures were taken with a Nikon Eclipse 50i microscope equipped with a DS-Fi1 camera (Nikon Corporation, Tokyo, Japan).

[3] = Cytotoxicity assay in NCI-H460 (MTT); format: cell-based; conditions: human, NCI-H460 cells, read-out: NCI-H460 inhibition (CC50)
Protocol: (§1) THP-1 human acute monocytic leukemia cells and NCI-H460 human lung carcinoma cells were grown in RPMI supplemented with 10% FBS. Hep-G2 human hepatocellular carcinoma cells were cultured in Eagle’s minimum essential medium (EMEM) supplemented with 10% FBS. A2780 human ovarian carcinoma cells were grown in RPMI supplemented with 10% FBS and 2 mM L-glutamine. MCF-7 human breast adenocarcinoma cells were cultured in EMEM containing 2 mM L-glutamine and Earle’s balanced salt solution adjusted with 1.5 g/L sodium bicarbonate, 0.1 mM non-essential amino acids, and 1 mM sodium pyruvate and supplemented with 10% FBS. […] Except for Caco-2 and HUVEC, inhibition of cell growth was evaluated using a protocol based on monitoring the transformation into formazan of the tetrazolium salt of MTT (3-(4,5-dimethylthiazol-2-yl)-2,5-diphenyltretrazolium bromide) by metabolically active cells. […] After 96 further h of incubation in the same conditions, 10 µL of a 5 mg/mL MTT solution in PBS was added to each sample, and the incubation was resumed for another 4 h. […] The absorbance measurement range was framed between one sample containing 4000 cells in plain growth medium (to determine the stable cell concentration) and another sample containing an equal cell number in growth medium supplemented with growth factors (to measure the maximum cell growth at 96 h).

[4] = test system: P. berghei ookinete development; assay: Ex vivo gametocyte-to-ookinete transition inhibition (ookinete maturation) assay; format: cell-based, Plasmodium berghei; conditions: ex vivo, 24 h at 21 °C
Protocol: Eight days before ookinete production, 100 µL of a red blood cell (RBC) pellet containing the Plasmodium berghei circumsporozoite protein and thrombospondin-related adhesive protein (TRAP)-related protein (CTRP)-green fluorescent protein (GFP) strain (CTRP-GFP, which expresses GFP when reaching ookinete stage, kindly provided by Inga Siden-Kiamos) in cryopreservation solution (RBC pellet:RPMI:30% glycerol in water, 1:1:2) was administered intraperitoneally (i.p.) to a BALB/c mouse (Charles River Laboratories, Wilmington, MA, USA). […] The effect of drugs on gametocyte-to-ookinete conversion was assessed in three independent replicas by plating 120 µL of each culture treated with serial dilutions of the compounds in 96-well plates and incubated for 24 h at 21 °C with orbital shaking at 50 rpm (modified from). Finally, samples diluted 1:100 in PBS were analyzed in an LSRFortessa flow cytometer (BD Biosciences, Franklin Lakes, NJ, USA) set up with the 4 lasers, 20 parameters standard configuration. The GFP positive cell population was counted (λexcitation: 488 nm; λemission: 525/40 nm) using BD FACSDiva software 6.1.3 (BD Biosciences) for data collection and Flowing Software 2.5.1 (Turku Center for Biotechnology, Turku, Finland) for analysis.

[5] = test system: liver stages of P. berghei in Huh7; conditions: human hepatoma cell line Huh7; read-out: IC50 against liver stages of P. berghei; cited from earlier work
[6] = Cytotoxicity assay in THP-1 (MTT); format: cell-based; conditions: human, THP-1 cells, read-out: THP-1 inhibition (CC50)
Protocol: as §1

CCN(CC)c1ccc(/C=C/c2cc[n+](CCCCCCCCCC[n+]3ccc(/C=C/c4ccc(N(CC)CC)cc4)c(C)c3)cc2C)cc1 [YAT2150]
IC50 at 48 h [1]: 16.2 ± 1.4 µM | SI (CC50/IC50) [2]: ~66 | CC50 at 96 h [3]: 6.76 ± 0.27 µM | concentration that abolished ookinete production [4]: ca. 0.5 µM | IC50 [5]: 0.78 µM | CC50 at 96 h [6]: 0.66 ± 0.01 µM

Source: PMC11514582, “Leveraging the Aggregated Protein Dye YAT2150 for Malaria Chemotherapy” (Pharmaceutics, 2024)
